# Patent US8569484B2, “Heterocyclic urea derivatives and methods of use thereof” (Astrazeneca AB, priority 2009, dated 2013)
# Biological target: S. aureus GyrB ATPase (Staphylococcus aureus, UniProt P0A0K8)
# Experiment: S. aureus GyrB ATPase inhibition (ammonium molybdate/malachite green phosphate detection)
# Format: biochemical
# Conditions: 1 μM compound; S. aureus GyrB ATPase; read-out: Percent Inhibition (1 μM)
# Procedure: S. aureus GyrB ATPase Inhibition Activity: Compounds may be tested for inhibition of S. aureus GyrB ATPase activity using an ammonium molybdate/malachite green-based phosphate detection assay (Lanzetta, P. A., L. J. Alvarez, P. S. Reinach, and O. A. Candia, 1979, 100: 95-97). Assays can be performed in multiwell plates in 30 μl reactions containing: 50 mM Hepes buffer pH 7.5, 75 mM ammonium acetate, 8.0 mM magnesium chloride, 0.5 mM ethylenediaminetetraacetic acid, 5% glycerol, 1.0 mM 1,4-Dithio-DL-threitol, 200 nM bovine serum albumin, 1.0 μg/ml sheared salmon sperm DNA, 250 pM E. coli GyrA, 250 pM S. aureus GyrB, 250 μM ATP, and compound in dimethylsulfoxide. Reactions can be quenched with 30 μl of ammonium molybdate/malachite green detection reagent containing 1.2 mM malachite green hydrochloride, 8.5 mM ammonium molybdate tetrahydrate, and 1 M hydrochloric acid. Plates can be read in an absorbance plate reader at 650 nm and percent inhibition values can be calculated using dimethylsulfoxide (2%)-containing reactions as 0% inhibition and EDTA-containing ([…]) reactions as 100% inhibition controls. An IC50 measurement of compound potency for each compound can be determined from reactions performed in the presence of 10 different compound concentrations.
# Sequence of S. aureus GyrB ATPase (P0AES4 whole entry): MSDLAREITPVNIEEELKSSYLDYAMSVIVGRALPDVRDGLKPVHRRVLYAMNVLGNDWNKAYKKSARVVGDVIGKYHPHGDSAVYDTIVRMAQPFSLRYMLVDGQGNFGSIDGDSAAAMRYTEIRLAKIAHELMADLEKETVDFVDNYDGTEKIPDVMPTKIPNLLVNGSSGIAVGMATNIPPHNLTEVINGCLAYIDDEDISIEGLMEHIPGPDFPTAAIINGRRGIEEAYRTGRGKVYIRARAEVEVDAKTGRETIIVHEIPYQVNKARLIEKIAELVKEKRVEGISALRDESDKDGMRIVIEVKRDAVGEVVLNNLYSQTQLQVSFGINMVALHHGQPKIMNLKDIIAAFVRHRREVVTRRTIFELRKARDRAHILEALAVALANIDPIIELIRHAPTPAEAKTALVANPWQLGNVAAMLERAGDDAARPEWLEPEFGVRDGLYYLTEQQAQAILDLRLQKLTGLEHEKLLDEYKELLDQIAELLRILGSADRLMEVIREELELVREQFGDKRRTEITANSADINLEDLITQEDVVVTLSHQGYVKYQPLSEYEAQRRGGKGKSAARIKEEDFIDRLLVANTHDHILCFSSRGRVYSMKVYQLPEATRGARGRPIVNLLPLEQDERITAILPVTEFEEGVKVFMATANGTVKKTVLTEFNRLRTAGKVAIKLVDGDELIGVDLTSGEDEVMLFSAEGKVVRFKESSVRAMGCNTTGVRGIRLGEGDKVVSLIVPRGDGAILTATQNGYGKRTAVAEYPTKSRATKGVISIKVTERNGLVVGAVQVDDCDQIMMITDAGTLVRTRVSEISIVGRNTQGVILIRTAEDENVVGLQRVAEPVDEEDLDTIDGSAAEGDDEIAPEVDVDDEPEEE
# Sequence of S. aureus GyrB ATPase (P0A0K8 whole entry): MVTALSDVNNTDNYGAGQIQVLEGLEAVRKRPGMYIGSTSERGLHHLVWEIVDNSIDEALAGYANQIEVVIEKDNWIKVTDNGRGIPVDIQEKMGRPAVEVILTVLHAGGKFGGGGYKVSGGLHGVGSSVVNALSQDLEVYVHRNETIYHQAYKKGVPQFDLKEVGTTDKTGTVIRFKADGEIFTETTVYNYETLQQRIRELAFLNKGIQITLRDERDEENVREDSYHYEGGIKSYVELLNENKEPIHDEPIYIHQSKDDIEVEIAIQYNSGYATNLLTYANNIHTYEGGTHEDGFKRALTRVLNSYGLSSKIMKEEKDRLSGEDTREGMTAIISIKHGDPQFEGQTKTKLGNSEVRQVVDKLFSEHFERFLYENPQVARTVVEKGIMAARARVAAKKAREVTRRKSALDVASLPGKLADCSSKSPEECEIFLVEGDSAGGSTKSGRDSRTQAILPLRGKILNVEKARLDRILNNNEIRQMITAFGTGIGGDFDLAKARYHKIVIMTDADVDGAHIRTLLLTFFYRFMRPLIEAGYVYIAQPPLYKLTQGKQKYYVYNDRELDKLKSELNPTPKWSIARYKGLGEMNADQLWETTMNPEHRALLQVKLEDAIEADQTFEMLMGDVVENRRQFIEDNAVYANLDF
row,SMILES,inhibition at 1 µM [%]
1,CCNC(=O)Nc1cc(-c2nc(C(F)(F)F)cs2)c(-c2cc3c(=O)c(C(=O)O)cn(CCOC)c3cn2)cn1 [Example 46],106
2,CCNC(=O)Nc1cc(-c2nc(C(F)(F)F)cs2)c(-c2cc3c(=O)c(C(=O)O)cn(CCN4CCCC4)c3cn2)cn1 [Example 67],93
3,"CCNC(=O)Nc1cc(-c2nc(C(F)(F)F)cs2)c(-c2cc3c(=O)c(C(=O)O)cn([C@H](CO)C(C)(C)C)c3nc2N2CCC(N)C2)cn1 (stereo partly drawn) [Example 78, 7-(3-aminopyrrolidin-1-yl)-6-(6-(3-ethylureido)-4-(4-(trifluoromethyl)thiazol-2-yl)pyridin-3-yl)-1-((S)-1-hydroxy-3,3-dimethylbutan-2-yl)-4-oxo-1,4-dihydro-1,8-naphthyridine-3-carboxylic acid]",98
4,CCNC(=O)Nc1cc(-c2nc(C(F)(F)F)cs2)c(-c2cc3c(=O)c(C(=O)O)cn(Cc4ccncc4)c3cn2)cn1 [Example 72],105
5,CCNC(=O)Nc1cc(-c2nc(C(F)(F)F)cs2)c(-c2cnc3c(c2)c(=O)c(C(=O)O)cn3[C@@H]2CCCN(CCN(CC)CC)C2)cn1 [Example 54],106
6,CCNC(=O)Nc1cc(-c2nc(C(F)(F)F)cs2)c(-c2cnc3c(c2)c(=O)c(C(=O)O)cn3C(COC)COC)cn1 [Example 55],103
7,"CCNC(=O)Nc1cc(-c2nc(C(F)(F)F)cs2)c(-c2cnc3c(c2)c(=O)c(C(=O)O)cn3CC2CCN(C)CC2)cn1 [Example 1, 6-(6-(3-Ethylureido)-4-(4-(trifluoromethyl)thiazol-2-yl)pyridin-3-yl)-1-((1-methylpiperidin-4-yl)methyl)-4-oxo-1,4-dihydro-1,8-naphthyridine-3-carboxylic acid]",107
8,CCNC(=O)Nc1cc(-c2nc(C(F)(F)F)cs2)c(-c2cc3c(=O)c(C(=O)O)cn(C[C@@H]4CCN(CC)C4)c3cn2)cn1 [Example 74],100
9,CCNC(=O)Nc1cc(-c2nc(C(F)(F)F)cs2)c(-c2cc3c(=O)c(C(=O)O)cn(C4CN(C)C4)c3cn2)cn1 [Example 70],102
10,"CCNC(=O)Nc1cc(-c2nc(C(F)(F)F)cs2)c(-c2cnc3c(c2)c(=O)c(C(=O)O)cn3CC)cn1 [Example 8, 1-Ethyl-6-{6-[(ethylcarbamoyl)amino]-4-[4-(trifluoromethyl)-1,3-thiazol-2-yl]pyridin-3-yl}-4-oxo-1,4-dihydro-1,8-naphthyridine-3-carboxylic acid]",98
11,"CCNC(=O)Nc1cc(-c2nc(C(F)(F)F)cs2)c(-c2cnc3c(c2)c(=O)c(C(=O)OCCCO)cn3CC)cn1 [Example 18, 3-hydroxypropyl 1-ethyl-6-{6-[(ethylcarbamoyl)amino]-4-[4-(trifluoromethyl)-1,3-thiazol-2-yl]pyridin-3-yl}-4-oxo-1,4-dihydro-1,8-naphthyridine-3-carboxylate]",108
12,CCNC(=O)Nc1cc(-c2nc(C(F)(F)F)cs2)c(-c2cnc3c(c2)c(=O)c(C(=O)O)cn3C[C@H]2CCCN2CC)cn1 [Example 33],102
13,CCNC(=O)Nc1cc(-c2nc(C(F)(F)F)cs2)c(-c2cc3c(=O)c(C(=O)O)cn(C[C@@H]4CCCN4CC)c3nc2N2CCN(C)CC2)cn1 [Example 58],104
14,"CCNC(=O)Nc1cc(-c2nc(C(F)(F)F)cs2)c(-c2cnc3c(c2)c(=O)c(C(=O)O)cn3CCC2CCN(C)CC2)cn1 [Example 2, 6-(6-(3-ethylureido)-4-(4-(trifluoromethyl)thiazol-2-yl)pyridin-3-yl)-1-(2-(1-methylpiperidin-4-yl)ethyl)-4-oxo-1,4-dihydro-1,8-naphthyridine-3-carboxylic acid]",123
15,CCNC(=O)Nc1cc(-c2nc(C(F)(F)F)cs2)c(-c2cnc3c(c2)c(=O)c(C(=O)O)cn3C2CN(C)C2)cn1 [Example 57],107
16,"CCNC(=O)Nc1cc(-c2nc(C(F)(F)F)cs2)c(-c2cc3c(=O)c(C(=O)O)cn(CC)c3nc2N2CCN(C)CC2)cn1 [Example 38, 1-ethyl-6-(6-(3-ethylureido)-4-(4-(trifluoromethyl)thiazol-2-yl)pyridin-3-yl)-7-(4-methylpiperazin-1-yl)-4-oxo-1,4-dihydro-1,8-naphthyridine-3-carboxylic acid]",101
17,CCNC(=O)Nc1cc(-c2nc(C(F)(F)F)cs2)c(-c2cc3c(=O)c(C(=O)O)cn(C[C@H]4CCCN4CC)c3cn2)cn1 [Example 41],102

row,SMILES,inhibition at 1 µM [%]
1,"CCNC(=O)Nc1cc(-c2nc(C(F)(F)F)cs2)c(-c2cc3c(=O)c(C(=O)O)cn(CC)c3nc2NCCN(C)C)cn1 [Example 37, 7-(2-(dimethylamino)ethylamino)-1-ethyl-6-(6-(3-ethylureido)-4-(4-(trifluoromethyl)thiazol-2-yl)pyridin-3-yl)-4-oxo-1,4-dihydro-1,8-naphthyridine-3-carboxylic acid]",109
2,CCNC(=O)Nc1cc(-c2nc(-c3cnn(C)c3)cs2)c(-c2cc3c(=O)c(C(=O)O)cn(C4CC4)c3cn2)cn1 [Example 75],108
3,CCNC(=O)Nc1cc(-c2nc(C(F)(F)F)cs2)c(-c2cc3c(=O)c(C(=O)O)cn(CCN4CCN(C)CC4)c3nc2N2CC[C@H](N)C2)cn1 [Example 61],103
4,CCNC(=O)Nc1cc(-c2nc(C(F)(F)F)cs2)c(-c2cc3c(=O)c(C(=O)O)cn([C@H](CO)C(C)(C)C)c3cn2)cn1 [Example 71],103
5,"CCNC(=O)Nc1cc(-c2nc(C(F)(F)F)cs2)c(-c2cnc3c(c2)c(=O)c(C(=O)OCCCOP(=O)(O)O)cn3CC)cn1 [Example 22, 3-(Phosphonooxy)propyl 1-ethyl-6-{6-[(ethylcarbamoyl)amino]-4-[4-(trifluoromethyl)-1,3-thiazol-2-yl]pyridin-3-yl}-4-oxo-1,4-dihydro-1,8-naphthyridine-3-carboxylate]",104
6,"CCNC(=O)Nc1cc(-c2nc(C(F)(F)F)cs2)c(-c2cc3c(=O)c(C(=O)O)cn([C@H](CO)C(C)(C)C)c3nc2N2CCN(C)CC2)cn1 [Example 59, (S)-6-(6-(3-ethylureido)-4-(4-(trifluoromethyl)thiazol-2-yl)pyridin-3-yl)-1-(1-hydroxy-3,3-dimethylbutan-2-yl)-7-(4-methylpiperazin-1-yl)-4-oxo-1,4-dihydro-1,8-naphthyridine-3-carboxylic acid]",108
7,CCNC(=O)Nc1cc(-c2nc(C(F)(F)F)cs2)c(-c2cc3c(=O)c(C(=O)O)cn(CC)c3nc2N2CCC(N)C2)cn1 (centres unmarked) [Example 77],105
8,"CCNC(=O)Nc1cc(-c2nc(C(F)(F)F)cs2)c(-c2cnc3c(c2)c(=O)c(C(=O)OCCO)cn3CC)cn1 [Example 17, 2-hydroxyethyl 1-ethyl-6-{6-[(ethylcarbamoyl)amino]-4-[4-(trifluoromethyl)-1,3-thiazol-2-yl]pyridin-3-yl}-4-oxo-1,4-dihydro-1,8-naphthyridine-3-carboxylate]",106
9,CCCN1CC[C@H](Cn2cc(C(=O)O)c(=O)c3cc(-c4cnc(NC(=O)NCC)cc4-c4nc(C(F)(F)F)cs4)ncc32)C1 [Example 73],108
10,CCNC(=O)Nc1cc(-c2nc(C(F)(F)F)cs2)c(-c2cc3c(=O)c(C(=O)O)cn(C[C@@H]4CCCN4CC)c3cn2)cn1 [Example 42],103
11,CCNC(=O)Nc1cc(-c2nc(C(F)(F)F)cs2)c(-c2cc3c(=O)c(C(=O)O)cn([C@H](CO)CC(C)C)c3cn2)cn1 [Example 45],107
12,CCNC(=O)Nc1cc(-c2nc(C(F)(F)F)cs2)c(-c2cc3c(=O)c(C(=O)O)cn(CCC(C)(C)C)c3cn2)cn1 [Example 40],103
13,"CCNC(=O)Nc1cc(-c2nc(C(F)(F)F)cs2)c(-c2cnc3c(c2)c(=O)c(C(=O)O)cn3[C@H](CO)C(C)(C)C)cn1 [Example 12, 6-{6-[(ethylcarbamoyl)amino]-4-[4-(trifluoromethyl)-1,3-thiazol-2-yl]pyridin-3-yl}-1-[(2S)-1-hydroxy-3,3-dimethylbutan-2-yl]-4-oxo-1,4-dihydro-1,8-naphthyridine-3-carboxylic acid]",104
14,"CCNC(=O)Nc1cc(-c2nc(CC(C)C)cs2)c(-c2cnc3c(c2)c(=O)c(C(=O)O)cn3[C@H]2CCCN(CCN(CC)CC)C2)cn1 [Example 34, (S)-1-(1-(2-(diethylamino)ethyl)piperidin-3-yl)-6-(6-(3-ethylureido)-4-(4-isobutylthiazol-2-yl)pyridin-3-yl)-4-oxo-1,4-dihydro-1,8-naphthyridine-3-carboxylic acid]",103
15,CCNC(=O)Nc1cc(-c2nc(C(F)(F)F)cs2)c(-c2cc3c(=O)c(C(=O)O)cn(CC)c3cn2)cn1 [Example 68],110
16,CCNC(=O)Nc1cc(-c2nc(C(F)(F)F)cs2)c(-c2cc3c(=O)c(C(=O)O)cn(Cc4cn(C)cn4)c3cn2)cn1 [Example 50],99

# Same assay, conditions: read-out: Percent Inhibition (1 μM)
row,SMILES,inhibition at 1 µM [%]
1,CCNC(=O)Nc1cc(-c2nc(C(F)(F)F)cs2)c(-c2cnc3c(c2)c(=O)c(C(=O)O)cn3[C@@H]2CCCN(CCN3CCOCC3)C2)cn1 [Example 29],105
2,"CCNC(=O)Nc1cc(-c2nc(C(F)(F)F)cs2)c(-c2cnc3c(c2)c(=O)c(C(=O)OCCOP(=O)(O)O)cn3CC)cn1 [Example 20, 2-(phosphonooxy)ethyl 1-ethyl-6-{6-[(ethylcarbamoyl)amino]-4-[4-(trifluoromethyl)-1,3-thiazol-2-yl]pyridin-3-yl}-4-oxo-1,4-dihydro-1,8-naphthyridine-3-carboxylate]",104
